Results published in patent US7357835B2, “Production of crystalline materials by using high intensity ultrasound” (Accentus PLC, priority 2002, dated 2008).

Columns and labels:
[1] = Saturation of aqueous D-xylose solution; format: physicochemical; details: saturated at 50° C.
Method: (§1) An experiment to investigate the effect of ultrasound on crystallisation has been performed, as follows. An aqueous solution of D-xylose containing 25 g D-xylose per 10 ml water was prepared, which would be saturated at 50° C. This was than cooled at a rate of 0.2 K/min to 20° C., and the resulting solid products were separated and isolated. […] If the transducers 14 were energized for a period of 2 minutes, starting at 46° C., then crystals appeared at 43° C. If the transducers 14 were energized continuously, starting at 50° C., then the resulting crystals were very small, and information on sizes was not obtained.

[2] = Effect of ultrasound on crystallisation of aqueous D-xylose solution cooled at 0.2 K/min; format: physicochemical; details: for temperature T at which solid first appeared: solution saturated at 50° C.
Text: Referring to the drawing, a batch crystallisation irradiator 10 includes a stainless-steel vessel 12 of internal diameter 0.31 m and of wall thickness 2 mm. To the outside of the wall are attached sixty transducer modules 14 closely packed in a square array. Each transducer module 14 comprises a 50 W piezoelectric transducer 16 which resonates at 20 kHz, attached to a conically flared titanium coupling block 18 by which it is connected to the wall, the wider end of each block being of diameter 63 mm. The transducer modules define five circumferential rings each of twelve modules 14, the centres of the coupling blocks 18 being on a square pitch of 82 mm. The irradiator 10 also incorporates three signal generators 20 (only one is shown) each of which drives the transducers 16 in a pair of adjacent longitudinal rows and another such pair of rows one third of the circumference apart from the first pair.
Consequently the solution will become saturated and then supersaturated. When the temperature is about 10° C. below that at which saturation occurs, the transducers are energized briefly, each generator 20 being energized for 0.8 s successively. Each transducer irradiates 50 W over a circle of diameter 63 mm, that is an intensity of 1.6 W/cm^2. The ultrasonic energy is dissipated over the cylindrical volume of the vessel 12, which is about 31 litres, so if all the transducers 16 were energised simultaneously the power density would be about 100 W/litre. To avoid focusing, only one signal generator 20 is energized at any one time, so the energy deposition is about 33 W/litre. After 0.8 s, a different generator 20 is energized, and so on. After 2.4 s each transducer has been energized, and application of ultrasound is terminated. The contents of the vessel 12 are then inspected, to see if any crystals have formed. If there are no crystals this activation procedure is repeated.
When they are activated, the signal generators 20 generate signals at a frequency that varies between 19.5 and 20.5 kHz, the signals from different signal generators 20 varying independently of each other. The frequency of each signal generator 20 varies sinusoidally with time between those frequency limits, at a frequency of 10 Hz.
as §1

concentration of saturated aqueous solution [1]: 25 g per 10 ml water
crystal size at 10% cumulative percentile (by mass) ([2]; 2 min ultrasound): 43 microns
crystal size at 50% cumulative percentile (by mass) ([2]; 2 min ultrasound): 106 microns
crystal size at 90% cumulative percentile (by mass) ([2]; 2 min ultrasound): 211 microns
temperature T at which solid first appeared ([2]; 2 min ultrasound starting at 46° C., cooled 0.2 K/min): 43 °C
metastable zone width ([2]; absence of ultrasound): about 14 K
metastable zone width ([2]; continuous application of ultrasound): about 4 K
temperature T at which solid first appeared ([2]; continuous ultrasound starting at 50° C., cooled 0.2 K/min): 46 °C
crystal size at 10% cumulative percentile (by mass) ([2]; no ultrasound): 27 microns
crystal size at 50% cumulative percentile (by mass) ([2]; no ultrasound): 67 microns
crystal size at 90% cumulative percentile (by mass) ([2]; no ultrasound): 149 microns
temperature T at which solid first appeared ([2]; no ultrasound (control), cooled 0.2 K/min to 20° C.): 36 °C
metastable zone width ([2]; short application of ultrasound): about 7 K
SMILES: O=C[C@H](O)[C@@H](O)[C@H](O)CO [D-xylose]
